In paper PMC3220813 (Cancer Chemotherapy and Pharmacology, 2011):
Values after ≈ are worked out from the molar mass of the structure shown. Where two headings read alike, the source gives them in different places. Marks after values point to notes of the source that are not given here. Each block holds one compound with its values, some of them ahead of it.

Assays:
purified MEK1 = conditions: cited from earlier work
Caco-2 cells = conditions: ref data on file; cited from earlier work
[1] = type: in vivo, human; conditions: for CL/F, geometric mean / Vd/F / AUC0–t, geometric mean / AUC, geometric mean / Cmax, geometric mean / t1/2, geometric mean / tmax, median: PP population; for time up to which measurable plasma concentrations were observed: both fed and fasted periods; for Vd/F: Vz/F, geometric mean
[2] = ref data on file, cited from earlier work
[3] = Classification by permeability and solubility; conditions: tentative; class IV = low permeability and low solubility
[4] = in vivo; cited from earlier work
[5] = system: various other kinases, enzymes, receptors, ion channels, and transporters; conditions: cited from earlier work
Safety and tolerability = type: in vivo, human
[6] = cited from earlier work
[7] = system: advanced solid malignancies; assay: Objective tumor response by RECIST 1.0; type: in vivo, human; conditions: 28 evaluable patients, both cutaneous melanoma
[8] = cited from earlier work; for increase in drug exposure with a high-fat meal: CI-1040 at 800 and 1,600 mg
[9] = AEs ≥10% of patients, safety population N = 30
[10] = reported in ≥2 patients, safety population, Total (N = 11)
[11] = Fasted, metabolite after 75 mg selumetinib
[12] = Fed, metabolite after 75 mg selumetinib

Compound: Cn1cnc2c(F)c(Nc3ccc(Br)cc3Cl)c(C(N)=O)cc21 [selumetinib amide]
less active than selumetinib (purified MEK1): up to 50 fold

Compound: Cn1cnc2c(F)c(Nc3ccc(Br)cc3Cl)c(C(=O)NOCCO)cc21 [selumetinib]
permeability across Caco-2 cells (Caco-2 cells): moderate permeability
delay of median tmax in the presence of food ([1]; 75 mg, fed minus fasted): approximately 2.5 h
CL/F, geometric mean ([1]; Fasted): 12.9 L/h
CL/F, geometric mean ([1]; Fed): 16.0 L/h
time up to which measurable plasma concentrations were observed [1]: up to 48 h
AUC(0-t) ([1]; human, plasma, oral, 75 mg): 5640 ng·h/mL
Vd/F ([1]; human, plasma, oral, 75 mg, Fasted): 175 L
Vd/F ([1]; human, plasma, oral, 75 mg, Fed): 199 L
solubility ([2]; pH1): 274 µg/mL (≈ 599 µM)
solubility ([2]; pH 7.4): 3.4 µg/mL (≈ 7.43 µM)
class (permeability/solubility classification) [3]: tentative class IV
route of excretion [4]: predominantly via the feces
activity against various other kinases, enzymes, receptors, ion channels, and transporters [5]: did not show significant activity
tolerability / safety profile (Safety and tolerability; 75 mg, advanced cancer population): well tolerated
Abdominal pain, number (%) of patients (Safety and tolerability; [9]): 8 (26.7) Number (%) of patients
Anemia, number (%) of patients (Safety and tolerability; [9]): 7 (23.3) Number (%) of patients
Constipation, number (%) of patients (Safety and tolerability; [9]): 11 (36.7) Number (%) of patients
Diarrhea, number (%) of patients (Safety and tolerability; [9]): 14 (46.7) Number (%) of patients
Dizziness, number (%) of patients (Safety and tolerability; [9]): 8 (26.7) Number (%) of patients
Dyspnoea, number (%) of patients (Safety and tolerability; [9]): 10 (33.3) Number (%) of patients
Edema peripheral, number (%) of patients (Safety and tolerability; [9]): 7 (23.3) Number (%) of patients
Fatigue, number (%) of patients (Safety and tolerability; [9]): 13 (43.3) Number (%) of patients
Headache, number (%) of patients (Safety and tolerability; [9]): 7 (23.3) Number (%) of patients
Nausea, number (%) of patients (Safety and tolerability; [9]): 18 (60.0) Number (%) of patients
Rash, number (%) of patients (Safety and tolerability; [9]): 16 (53.3) Number (%) of patients
Vomiting, number (%) of patients (Safety and tolerability; [9]): 9 (30.0) Number (%) of patients
patients with one or more dose reductions (Safety and tolerability; extension part, 75 mg BD, largely due to AEs (n = 6)): 10 patients
patients who died whilst on study (Safety and tolerability; intestinal perforation due to disease progression): 3.3%
patients with grade 4 AEs (Safety and tolerability; not considered causally related to study treatment): 6.7%
patients reporting an AE of grade 3 or higher (Safety and tolerability; overall safety population, 30 patients): 60.0%
Abdominal pain, SAE of ≥CTC grade 3, number (%) of patients (Safety and tolerability; [10]): 2 (6.7) Number (%) of patients
Anemia, SAE of ≥CTC grade 3, number (%) of patients (Safety and tolerability; [10]): 2 (6.7) Number (%) of patients
Constipation, SAE of ≥CTC grade 3, number (%) of patients (Safety and tolerability; [10]): 2 (6.7) Number (%) of patients
Dyspnoea, SAE of ≥CTC grade 3, number (%) of patients (Safety and tolerability; [10]): 3 (10.0) Number (%) of patients
Vomiting, SAE of ≥CTC grade 3, number (%) of patients (Safety and tolerability; [10]): 2 (6.7) Number (%) of patients
total body clearance from plasma after an oral dose (CL/F) ([6]; across studied dose range): 12 to 23 L/h
volume of distribution at steady state (Vss/F) ([6]; across studied dose range): 87 to 126 L
terminal elimination half-life (t1/2) ([6]; single dose): 5 to 8 h
partial responses [7]: 7.1%
IC50 (purified MEK1; read-out: IC50 against purified MEK1): 14 nM

AUC0–t, geometric mean [1, 11]: 376.4 ng/h/mL
AUC, geometric mean [1, 11]: 418.4 ng·h/mL
Cmax, geometric mean [1, 11]: 73.9 ng/mL
t1/2, geometric mean [1, 11]: 7.7 h
tmax, median [1, 11]: 1.50^a h
AUC0–t, geometric mean [1, 12]: 282.4 ng/h/mL
AUC, geometric mean [1, 12]: 379.1 ng·h/mL
Cmax, geometric mean [1, 12]: 33.5 ng/mL
t1/2, geometric mean [1, 12]: 6.8 h
tmax, median [1, 12]: 4.0^a h
time up to which measurable plasma concentrations were observed [1]: up to 24 h
ratio of N-desmethyl-selumetinib to selumetinib (metabolite to parent) ([1]; fasted state): 0.07
ratio of N-desmethyl-selumetinib to selumetinib (metabolite to parent) ([1]; fed state): 0.06
delay of median tmax in the fed condition ([1]; metabolite after 75 mg selumetinib): approximately 3 h
Compound: O=C(NOCCO)c1cc2nc[nH]c2c(F)c1Nc1ccc(Br)cc1Cl [N-desmethyl-selumetinib]
AUC relative to parent compound ([6]; plasma metabolite exposure): < 15%
Cmax relative to parent compound ([6]; plasma metabolite exposure): < 15%
greater potency for MEK1 inhibition than selumetinib (purified MEK1; in vitro): 3- to 5 fold

Compound: O=C(NOCC1CC1)c1ccc(F)c(F)c1Nc1ccc(I)cc1Cl [CI-1040]
increase in drug exposure with a high-fat meal [8]: 4.5 fold
MTD and recommended Phase II dose (RP2D) ([8]; administered with food): 800 mg BID

Compound: O=C(O)c1ccc(F)c(F)c1Nc1ccc(I)cc1Cl [PD-0184264]
increase in drug exposure with a high-fat meal [8]: 5 fold
